# According to patent US20240425480A1, “NOVEL PYRIDINE DERIVATIVE COMPOUND AS RON INHIBITOR” (LG CHEM, LTD., priority 2021, published 2024):
# Columns and labels:
# RON = RON (Homo sapiens, UniProt Q04912); assay: Inhibitory activity against RON, TR-FRET kinase assay; assay type: biochemical; conditions: TR-FRET enzyme assay
# Method: In order to measure the inhibitory activity of each of the compounds of Examples against RON, the IC50 of each of the compounds was measured using Time-resolved fluorescence energy transfer (TR-FRET).
# (§1) Specifically, the compound was prepared to a concentration of 1 mM in 100% DMSO and was diluted 10 times in a stepwise manner through 3-fold dilution. The compound (2 ul) diluted in a stepwise manner was added to a 96-well-plate containing 48 ul of a 1× kinase reaction buffer (50 mM HEPES (pH 7.4), 0.01% Tween-20, 5 mM DTT, 0.5 mM Na3VO4, 2 mM EGTA, 10 mM MgCl2).
# The RON protein was diluted to a concentration of 49.3 nM in a RON storage buffer (50 mM Tris-HCl (pH 7.5), 150 mM NaCl, 0.5 mM EDTA, 0.02% Triton X-100), and then diluted again to a concentration of 0.4 nM in a 1×kinase reaction buffer. As a substrate cocktail, a RON-specific substrate mixed solution (40 uM ULight-labeled Poly GT, 100 nM ATP) was prepared at a concentration 2 times the final reaction concentration.
# (§2) Thereafter, a 384-well-plate was prepared, and 2.5 μl of each of the diluted compounds of Examples was added to a corresponding well of experimental group wells, and 2.5 μl of a 4% DMSO solution was dispensed into high control wells and low control wells.
# (§3) Thereafter, 2.5 μL of 0.4 nM RON was dispensed into each of the high control wells and the experimental group wells, and 2.5 μL of the 1× kinase reaction buffer was added to the low control wells, and all the wells were centrifuged at room temperature for 40 seconds at 1,000 RPM, and then incubated at room temperature for 20-30 minutes. Then, 5 μL of the substrate cocktail (2×) was dispensed into each well, and all the wells were centrifuged at room temperature for 40 seconds at 1,000 RPM, and then incubated at room temperature for 60 minutes. Thereafter, 5 μL of 30 mM EDTA was added to each well to terminate the reaction, and all the wells were then incubated again at room temperature for 5 minutes. Thereafter, 5 μL of a 4×phosphotyrosine antibody (Perkin Elmer) containing europium was added to each well, and all the wells were then incubated at room temperature for 60 minutes. After the incubation, the 384-well-plate was read with the Vison plate reader. In this case, the excitation wavelength was 340 nm, and the emission wavelength was 620 nm and 665 nm. The IC50 value of each compound of Examples was derived using the GraphPd Prism7 program.
# cMET = cMET (Homo sapiens, UniProt P08581); assay: Inhibitory activity against MET (cMET), TR-FRET kinase assay; assay type: biochemical; conditions: TR-FRET enzyme assay
# Chain of cMET (P08581 25-1390): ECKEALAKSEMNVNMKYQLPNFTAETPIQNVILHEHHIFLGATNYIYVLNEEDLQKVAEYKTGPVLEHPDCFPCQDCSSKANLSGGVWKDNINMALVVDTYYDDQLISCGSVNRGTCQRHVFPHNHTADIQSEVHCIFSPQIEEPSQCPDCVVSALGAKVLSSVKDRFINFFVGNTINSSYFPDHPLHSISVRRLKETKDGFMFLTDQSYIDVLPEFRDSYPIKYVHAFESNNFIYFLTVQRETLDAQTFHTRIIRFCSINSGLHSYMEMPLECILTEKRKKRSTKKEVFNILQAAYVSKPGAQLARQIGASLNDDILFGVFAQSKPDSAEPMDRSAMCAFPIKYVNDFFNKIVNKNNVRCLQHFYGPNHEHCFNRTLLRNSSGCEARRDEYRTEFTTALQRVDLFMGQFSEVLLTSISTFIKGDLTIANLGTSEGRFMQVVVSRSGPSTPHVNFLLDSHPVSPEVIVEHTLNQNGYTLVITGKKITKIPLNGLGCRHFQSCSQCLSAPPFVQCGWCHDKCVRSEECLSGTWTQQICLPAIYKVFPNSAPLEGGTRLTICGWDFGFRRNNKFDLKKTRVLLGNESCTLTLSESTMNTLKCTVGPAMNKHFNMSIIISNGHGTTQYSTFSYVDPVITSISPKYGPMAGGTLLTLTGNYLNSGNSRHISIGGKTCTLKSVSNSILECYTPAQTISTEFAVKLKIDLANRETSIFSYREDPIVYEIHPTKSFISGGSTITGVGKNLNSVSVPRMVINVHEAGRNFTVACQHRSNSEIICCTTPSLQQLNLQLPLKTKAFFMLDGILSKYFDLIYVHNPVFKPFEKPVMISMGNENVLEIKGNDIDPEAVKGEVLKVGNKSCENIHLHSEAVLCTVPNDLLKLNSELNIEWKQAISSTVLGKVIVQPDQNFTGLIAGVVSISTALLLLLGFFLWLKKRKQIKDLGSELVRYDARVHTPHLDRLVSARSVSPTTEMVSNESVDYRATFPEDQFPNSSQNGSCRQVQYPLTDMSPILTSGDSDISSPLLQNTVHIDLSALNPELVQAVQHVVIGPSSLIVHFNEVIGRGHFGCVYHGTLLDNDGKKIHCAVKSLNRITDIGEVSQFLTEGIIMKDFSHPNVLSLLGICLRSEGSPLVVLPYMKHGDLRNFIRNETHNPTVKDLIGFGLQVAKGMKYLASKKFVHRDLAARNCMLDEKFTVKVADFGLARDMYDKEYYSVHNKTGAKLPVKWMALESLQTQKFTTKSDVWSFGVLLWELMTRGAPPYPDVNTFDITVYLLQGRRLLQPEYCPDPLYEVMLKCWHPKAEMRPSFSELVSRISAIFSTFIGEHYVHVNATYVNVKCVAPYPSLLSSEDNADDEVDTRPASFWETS
# Method: In addition, in order to measure the enzyme activity inhibition for cMET, the evaluation was performed in the same manner as the enzyme activity inhibition measurement experiment for RON.
# as §1, with “a 1×kinase” for “a 1× kinase”, “7.4), 0.05% BSA, 0.005%” for “7.4), 0.01%”, “Tween-20, 1” for “Tween-20, 5”, “mM MnCl2, 20” for “mM Na3VO4, 2 mM EGTA, 10”
# The cMET protein was diluted to a concentration of 263 nM in a cMET storage buffer (50 mM Tris-HCl (pH 7.5), 150 mM NaCl, 0.05% Brij35, 1 mM DTT, 10% Glycerol), and then diluted again to a concentration of 2 nM in a 1×kinase reaction buffer. As a substrate cocktail, a MET-specific substrate mixed solution (5 uM TK peptide, 10 mM ATP) was prepared at a concentration 2 times the final reaction concentration.
# as §2
# as §3, with “of 2” for “of 0.4”, “nM cMET” for “nM RON”, “of 90” for “of 30”, “The […]” for “The IC50”
# Chain of RON (Q04912 25-1400, species assumed): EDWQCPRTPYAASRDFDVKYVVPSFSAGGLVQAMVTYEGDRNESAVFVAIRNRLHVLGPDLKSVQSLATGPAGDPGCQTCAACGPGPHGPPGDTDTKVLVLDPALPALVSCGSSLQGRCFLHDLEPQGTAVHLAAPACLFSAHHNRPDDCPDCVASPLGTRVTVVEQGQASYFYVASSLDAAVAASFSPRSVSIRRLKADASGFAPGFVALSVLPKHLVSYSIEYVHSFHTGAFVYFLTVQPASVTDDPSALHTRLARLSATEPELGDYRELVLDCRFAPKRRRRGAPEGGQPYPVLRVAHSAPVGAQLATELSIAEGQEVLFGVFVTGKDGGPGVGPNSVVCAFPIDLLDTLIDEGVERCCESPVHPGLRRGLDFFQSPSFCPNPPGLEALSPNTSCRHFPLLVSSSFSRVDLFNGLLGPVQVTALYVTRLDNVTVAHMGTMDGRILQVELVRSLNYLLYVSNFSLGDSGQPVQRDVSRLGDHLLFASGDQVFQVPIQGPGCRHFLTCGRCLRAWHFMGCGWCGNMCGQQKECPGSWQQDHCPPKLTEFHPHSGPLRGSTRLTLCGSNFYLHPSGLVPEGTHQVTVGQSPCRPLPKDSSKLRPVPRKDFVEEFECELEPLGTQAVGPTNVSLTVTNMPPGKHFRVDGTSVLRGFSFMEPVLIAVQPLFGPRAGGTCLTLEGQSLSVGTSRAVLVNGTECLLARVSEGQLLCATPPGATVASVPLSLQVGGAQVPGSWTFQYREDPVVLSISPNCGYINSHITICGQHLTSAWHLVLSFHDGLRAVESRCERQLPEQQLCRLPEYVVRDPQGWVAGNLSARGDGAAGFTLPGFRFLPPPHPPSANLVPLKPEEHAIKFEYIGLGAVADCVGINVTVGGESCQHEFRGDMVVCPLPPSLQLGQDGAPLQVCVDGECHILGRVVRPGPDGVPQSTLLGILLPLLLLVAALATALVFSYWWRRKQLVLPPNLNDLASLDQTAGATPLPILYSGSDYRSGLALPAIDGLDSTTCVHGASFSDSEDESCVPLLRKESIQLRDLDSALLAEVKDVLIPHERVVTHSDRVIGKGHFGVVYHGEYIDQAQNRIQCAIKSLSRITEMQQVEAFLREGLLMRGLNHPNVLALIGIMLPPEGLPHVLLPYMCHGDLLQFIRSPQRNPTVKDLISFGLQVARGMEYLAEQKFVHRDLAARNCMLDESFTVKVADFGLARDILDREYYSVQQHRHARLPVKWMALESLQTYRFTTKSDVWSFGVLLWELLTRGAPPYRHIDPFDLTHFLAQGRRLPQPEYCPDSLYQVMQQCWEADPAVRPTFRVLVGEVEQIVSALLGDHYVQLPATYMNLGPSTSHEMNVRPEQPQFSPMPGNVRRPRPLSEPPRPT
Compound,IC50 (RON) [nM],IC50 (cMET) [nM]
"Nc1nccc(Oc2ccc(NC(=O)c3cnn(-c4ccncn4)c3C(F)(F)F)cc2F)c1Cl [Example 22, N-(4-((2-amino-3-chloropyridin-4-yl)oxy)-3-fluorophenyl)-1-(pyrimidin-4-yl)-5-(trifluoromethyl)-1H-pyrazole-4-carboxamide]",50 to 500,> 5000
"CCOc1cccnc1-n1ncc(C(=O)Nc2ccc(Oc3ccnc(N)c3Cl)c(F)c2)c1C(F)(F)F [Example 24, N-(4-((2-amino-3-chloropyridin-4-yl)oxy)-3-fluorophenyl)-1-(3-ethoxypyridin-2-yl)-5-(trifluoromethyl)-1H-pyrazole-4-carboxamide]",50 to 500,500 to 5000
"Nc1nccc(Oc2ccc(NC(=O)c3cnn(-c4cc(F)ccn4)c3C(F)(F)F)cc2F)c1Cl [Example 25, N-(4-((2-amino-3-chloropyridin-4-yl)oxy)-3-fluorophenyl)-1-(4-fluoropyridin-2-yl)-5-(trifluoromethyl)-1H-pyrazole-4-carboxamide]",< 50,> 5000
"Nc1nccc(Oc2ccc(NC(=O)c3cnn(-c4ncc(O)cn4)c3C(F)(F)F)cc2F)c1Cl [Example 27, N-(4-((2-amino-3-chloropyridin-4-yl)oxy)-3-fluorophenyl)-1-(5-hydroxypyrimidin-2-yl)-5-(trifluoromethyl)-1H-pyrazole-4-carboxamide]",50 to 500,> 5000
"Nc1nccc(Oc2ccc(NC(=O)c3cnn(-c4ncc(F)cc4F)c3C(F)(F)F)cc2F)c1Cl [Example 29, N-(4-((2-amino-3-chloropyridin-4-yl)oxy)-3-fluorophenyl)-1-(3,5-difluoropyridin-2-yl)-5-(trifluoromethyl)-1H-pyrazole-4-carboxamide]",< 50,> 5000
"Nc1nccc(Oc2ccc(NC(=O)c3cnn(-c4ccc(F)nn4)c3C(F)(F)F)cc2F)c1Cl [Example 30, N-(4-((2-amino-3-chloropyridin-4-yl)oxy)-3-fluorophenyl)-1-(6-fluoropyridazin-3-yl)-5-(trifluoromethyl)-1H-pyrazole-4-carboxamide]",500 to 5000,> 5000
"Nc1cc(Oc2ccc(NC(=O)c3cnn(-c4ncccc4F)c3C(F)(F)F)cc2F)ccn1 [Example 31, N-(4-((2-aminopyridin-4-yl)oxy)-3-fluorophenyl)-1-(3-fluoropyridin-2-yl)-5-(trifluoromethyl)-1H-pyrazole-4-carboxamide]",< 50,> 5000
"Nc1nccc(Oc2ccc(NC(=O)c3cnn(-c4ncccc4F)c3C(F)(F)F)c(F)c2)c1Cl [Example 32, N-(4-((2-amino-3-chloropyridin-4-yl)oxy)-2-fluorophenyl)-1-(3-fluoropyridin-2-yl)-5-(trifluoromethyl)-1H-pyrazole-4-carboxamide]",< 50,500 to 5000
"CC(C)Nc1c(Oc2ccc(NC(=O)c3cnn(-c4ncccc4F)c3C(F)(F)F)cc2F)ccnc1N [Example 34, N-(4-((2-amino-3-(isopropylamino)pyridin-4-yl)oxy)-3-fluorophenyl)-1-(3-fluoropyridin-2-yl)-5-(trifluoromethyl)-1H-pyrazole-4-carboxamide]",< 50,> 5000
"CCc1c(C(=O)Nc2ccc(Oc3ccnc(N)c3I)c(F)c2)cnn1-c1ncccc1Cl [Example 38, N-(4-((2-amino-3-iodopyridin-4-yl)oxy)-3-fluorophenyl)-1-(3-chloropyridin-2-yl)-5-ethyl-1H-pyrazole-4-carboxamide]",< 50,500 to 5000
"Cn1cc(-n2ncc(C(=O)Nc3ccc(Oc4ccnc(N)c4Cl)c(F)c3)c2C(F)(F)F)cn1 [Example 39, N-(4-((2-amino-3-chloropyridin-4-yl)oxy)-3-fluorophenyl)-1′-methyl-5-(trifluoromethyl)-1′H-[1,4′-bipyrazole]-4-carboxamide]",50 to 500,> 5000
"Cc1csc(-n2ncc(C(=O)Nc3ccc(Oc4ccnc(N)c4Cl)c(F)c3)c2C(F)(F)F)n1 [Example 40, N-(4-((2-amino-3-chloropyridin-4-yl)oxy)-3-fluorophenyl)-1-(4-methylthiazol-2-yl)-5-(trifluoromethyl)-1H-pyrazole-4-carboxamide]",50 to 500,> 5000

# More lines, now with the values ahead:
IC50 (RON) [nM],IC50 (cMET) [nM],Compound
< 50,> 5000,"Nc1nccc(Oc2ccc(NC(=O)c3cnn(-c4ncccn4)c3C(F)(F)F)cc2F)c1Cl [Example 21, N-(4-((2-amino-3-chloropyridin-4-yl)oxy)-3-fluorophenyl)-1-(pyrimidin-2-yl)-5-(trifluoromethyl)-1H-pyrazole-4-carboxamide]"
50 to 500,> 5000,"Cc1ccnc(-n2ncc(C(=O)Nc3ccc(Oc4ccnc(N)c4Cl)c(F)c3)c2C(F)(F)F)n1 [Example 23, N-(4-((2-amino-3-chloropyridin-4-yl)oxy)-3-fluorophenyl)-1-(4-methylpyrimidin-2-yl)-5-(trifluoromethyl)-1 H-pyrazole-4-carboxamide]"
50 to 500,> 5000,"Nc1nccc(Oc2ccc(NC(=O)c3cnn(-c4ncc(F)cn4)c3C(F)(F)F)cc2F)c1Cl [Example 26, N-(4-((2-amino-3-chloropyridin-4-yl)oxy)-3-fluorophenyl)-1-(5-fluoropyrimidin-2-yl)-5-(trifluoromethyl)-1H-pyrazole-4-carboxamide]"
< 50,500 to 5000,"Nc1nccc(Oc2ccc(NC(=O)c3cnn(-c4ncccc4F)c3C(F)(F)F)cc2F)c1I [Example 28, N-(4-((2-amino-3-iodopyridin-4-yl)oxy)-3-fluorophenyl)-1-(3-fluoropyridin-2-yl)-5-(trifluoromethyl)-1H-pyrazole-4-carboxamide]"
50 to 500,> 5000,"Nc1nccc(Oc2ccc(NC(=O)c3cnn(-c4ncccc4F)c3C(F)(F)F)cc2F)c1NC1CCCCC1 [Example 33, N-(4-((2-amino-3-(cyclohexylamino)pyridin-4-yl)oxy)-3-fluorophenyl)-1-(3-fluoropyridin-2-yl)-5-(trifluoromethyl)-1H-pyrazole-4-carboxamide]"
< 50,> 5000,"CCc1c(C(=O)Nc2ccc(Oc3ccnc(N)c3Cl)c(F)c2)cnn1-c1ncccc1F [Example 35, N-(4-((2-amino-3-chloropyridin-4-yl)oxy)-3-fluorophenyl)-5-ethyl-1-(3-fluoropyridin-2-yl)-1H-pyrazole-4-carboxamide]"
50 to 500,500 to 5000,"CCc1c(C(=O)Nc2ccc(Oc3ccnc(N)c3Cl)c(F)c2)cnn1-c1ncccc1Cl [Example 36, N-(4-((2-amino-3-chloropyridin-4-yl)oxy)-3-fluorophenyl)-1-(3-chloropyridin-2-yl)-5-ethyl-1H-pyrazole-4-carboxamide]"
< 50,500 to 5000,"CCc1c(C(=O)Nc2ccc(Oc3ccnc(N)c3I)c(F)c2)cnn1-c1ncccc1F [Example 37, N-(4-((2-amino-3-iodopyridin-4-yl)oxy)-3-fluorophenyl)-5-ethyl-1-(3-fluoropyridin-2-yl)-1H-pyrazole-4-carboxamide]"
